Source: US20160067241A1, “COMPOSITIONS AND METHODS TO IMPROVE THE THERAPEUTIC BENEFIT OF SUBOPTIMALLY ADMINISTERED CHEMICAL COMPOUNDS INCLUDING SUBSTITUTED NAPHTHALIMIDES SUCH AS AMONAFIDE FOR THE TREATMENT OF IMMUNOLOGICAL, METABOLIC, INFECTIOUS, AND BENIGN OR NEOPLASTIC HYPERPROLIFERATIVE DISEASE CONDITIONS” (priority 2013, published 2016)

How the values were obtained:
[1] = molecular target: glycogen synthase kinase-3β (GSK-3β) (Homo sapiens, UniProt P49841); conditions: cited from earlier work
Chain of glycogen synthase kinase-3β (GSK-3β) (P49841 whole entry, species assumed): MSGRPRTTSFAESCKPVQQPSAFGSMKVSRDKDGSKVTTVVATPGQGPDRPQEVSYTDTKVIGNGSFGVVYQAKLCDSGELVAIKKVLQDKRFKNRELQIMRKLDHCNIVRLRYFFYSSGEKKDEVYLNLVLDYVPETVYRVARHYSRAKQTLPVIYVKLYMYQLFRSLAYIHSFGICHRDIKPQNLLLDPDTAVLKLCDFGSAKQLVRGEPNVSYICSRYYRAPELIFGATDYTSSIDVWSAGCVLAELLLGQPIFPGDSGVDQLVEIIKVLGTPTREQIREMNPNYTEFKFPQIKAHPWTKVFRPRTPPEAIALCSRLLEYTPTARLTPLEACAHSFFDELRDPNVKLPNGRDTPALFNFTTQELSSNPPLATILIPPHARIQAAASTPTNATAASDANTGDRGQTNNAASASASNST

[2] = system: white blood cell count (WBC); conditions: patients; cited from earlier work
N-acetyltransferase NAT2 = molecular target: T1, N-acetyltransferase NAT2 (Homo sapiens, UniProt P11245); conditions: cited from earlier work
T1 sequence (P11245 1-290): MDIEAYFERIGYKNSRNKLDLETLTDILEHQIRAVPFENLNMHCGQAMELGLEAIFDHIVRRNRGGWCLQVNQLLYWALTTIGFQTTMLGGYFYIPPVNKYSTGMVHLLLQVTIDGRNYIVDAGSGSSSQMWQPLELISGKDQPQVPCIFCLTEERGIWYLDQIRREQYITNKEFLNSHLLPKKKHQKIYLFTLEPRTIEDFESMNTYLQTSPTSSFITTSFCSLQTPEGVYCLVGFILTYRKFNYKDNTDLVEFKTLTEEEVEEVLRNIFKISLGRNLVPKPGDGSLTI

topoisomerase II = conditions: Hsiang et al. 1989; cited from earlier work
[3] = system: RIF-1 murine fibrosarcoma; test: RIF-1 fibrosarcoma tumor growth delay (tumor volume quadrupling time) in mice; assay type: in vivo, Female C3H mice; conditions: for enhancement of amonafide activity by sensitizing or potentiating agent: agent given with amonafide
Excerpt: Tables 1 and 2, shown in FIGS. 1 and 2, respectively, show the use of amonafide, alone or in combination with another anti-neoplastic drug, in a tumor model in mice as described below Female C3H mice (Charles River Laboratories, Hollister, Calif.), approximately 3 months old, were used for the study. The average body weight was approximately 25 g. Animals were maintained in isolator cages on a 12-hour light-and-dark cycle. Food and water were available ad libitum. The RIF-1 murine fibrosarcoma cell line was maintained in in vitro culture (Waymouth medium supplemented with 20% fetal bovine serum) at 37° C. in a humidified 5% CO2 incubator. Log-phase RIF-1 cells were trypsinized and harvested from cell culture flasks to yield a concentration of 4×10^6 cells/mL, then injected intradermally in a volume of 50 μL (equivalent to 2×10^5 cells per injection) into both flanks of each mouse. Nine days later, when tumors reached approximately 100 mm^3 in size, the animals were randomized to different treatment groups. The intraperitoneal injection volume was 100 μL. The oral administration volume was 100 μL. For evaluation of tumor growth delay, tumors were measured three times weekly for up to 22 days with Vernier calipers. Tumor volume (cubic millimeters, mm^3) was calculated according to the following formula: V=π/6×D1×D2×D3, where D1, D2, and D3 are perpendicular diameters measured in […]. Tumor volume quadrupling time (TVQT), defined as the time required for a tumor to grow to four times (4×) its initial volume (at the time of treatment), was used as a study endpoint. The TVQT was determined for each treatment group and expressed in days as the mean±standard error (SE). In these tables, “CDDP” is cisplatin, “VBL” is vinblastine, “HHT” is homoharringtonine, “5FU” is 5-fluorouracil, “CPT” is camptothecin, “RA” is rosmarinic acid, and “MGBG” is methylglyoxalbisguanylhydrazone. For solvents and excipients, “Sal” is saline, “NMF” is N-methylformamide, and “PEG400” is polyethylene glycol 400. For routes of administration, “IP” is intraperitoneal, “PO” is oral, “IM” is intramuscular, and “SC” is subcutaneous. In these tables, the use of the “+” symbol means that both drugs were administered at the same time, while the use of the “ ? ” symbol means that the drug to the left of the symbol was administered first, followed by the drug to the right of the symbol; the second drug was administered 30 minutes after the first drug. In the headings for these tables, “Days to 4×” is the number of days it takes the tumors to grow to four times their original size. “T/C” represents the average number of days that it takes the tumors to grow to four times their original size for the specified treatment divided by the number of days that it takes the tumors to grow to four times their original size for the control.

Q: Which “concentration for inhibition of GSK-3β” value [1] does the source give for `CN1C(=O)/C(=C2/C(=O)Nc3ccccc32)c2ccccc21` [Meisoindigo] here?
A: Its value is 5 to 50 nM.

Q: Which “impact on white blood cell count” value [2] does the source give for `CC(=O)Nc1cc2c3c(cccc3c1)C(=O)N(CCN(C)C)C2=O` [acetyl amonafide] here?
A: Its value is “induce leukocytopenia and, in particular, granulocytopenia”.

Q: With `CN(C)CCN1C(=O)c2cccc3cc(N)cc(c23)C1=O` [amonafide, 5-amino-2-[2-(dimethylamino)ethyl]-1H-benzo[de]isoquinoline-1,3(2H)-dione] as the molecule, how does the “metabolism by NAT2” value (N-acetyltransferase NAT2) read?
A: Its value is “converted to an active metabolite by way of the N-acetyltransferase NAT2”.

Q: And the “promotion of topoisomerase II-mediated DNA cleavage” value (topoisomerase II)?
A: Its value is “promote topoisomerase II-mediated DNA cleavage”.

Q: What about the “effect on tumor growth” value ([3]; RIF-1 tumors in C3H mice, alone or in combination with another anti-neoplastic drug) of the same molecule?
A: The value was “significant effect on tumor growth”.

Q: What about the “combination effect with another anti-neoplastic drug” value ([3]; amonafide administered together with another anti-neoplastic drug) of the same molecule?
A: Its value is “evidence of synergism”.

Q: What about the “enhancement of antitumor effects of other drugs (chemosensitizer or chemopotentiator)” value ([3]; amonafide combined with a second drug) of the same molecule?
A: The value was “enhanced the antitumor effects of cisplatin, 5-fluorouracil, homoharringtonine, vinblastine, camptothecin, methylglyoxalbisguanylhydrazone, and cytarabine”.

Q: And the “antiproliferative activity by route” value ([3]; direct systemic (intraperitoneal) administration or oral route)?
A: Its value is “active antiproliferative agent”.

Q: What about the activity by schedule ([3]; single administration or multiple oral doses) of the same molecule?
A: Its activity by schedule is “active after a single administration or given as multiple doses orally”.

Q: For `COc1ccc2cc3[n+](cc2c1OC)CCc1cc2c(cc1-3)OCO2` [berberine], which “enhancement of amonafide activity by sensitizing or potentiating agent” value [3] is on record?
A: The value was “enhances amonafide activity”.

Q: Which “enhancement of amonafide activity by sensitizing or potentiating agent” value [3] does the source give for `NC(=O)c1cccnc1` [nicotinamide] here?
A: The value was “enhances amonafide activity”.
